Assay results reported in US9522881B2, “Hydroxyindole carboxylic acid based inhibitors for oncogenic Src homology-2 domain containing protein tyrosine phosphatase-2 (SHP2)” (Indiana University Research and Technology Corporation, priority 2013, dated 2016).

How the values were obtained:
hematopoietic progenitor = conditions: cited from earlier work
[1] = test system: 32D myeloid cells bearing wild-type (WT) KIT; assay: Proliferation (thymidine incorporation) of 32D myeloid cells bearing WT KIT; assay type: cell-based; conditions: tested concentrations, with IL-3
Protocol: (§1) FIG. 8A is a graph depicting 32D myeloid cells bearing wild-type (WT) KIT or KITD814V that were starved of serum and growth factors for 6 hours and subjected to proliferation assay in the presence or absence of the indicated concentration of II-B08 or 11a-1 as analyzed in Example 6. Assay was performed in the presence of IL-3 (10 ng/mL) for cells bearing WT KIT and in the absence of growth factors for cells bearing oncogenic KITD814V. Bars denote the mean thymidine incorporation (CPM±SEM) consolidated from four independent experiments performed in triplicate. *p<0.05.
To further determine the efficacy of compound 11a-1, the growth of oncogenic KITD814V bearing 32D myeloid cells in the presence of II-B08 and 11a-1 were compared. Specifically, the wild-type (WT) KIT and KITD814V were inserted into the bicistronic retroviral vector, MIEG3, upstream of the internal ribosome entry site (IRES) and the enhanced green fluorescent protein (EGFP) gene as previously described in Mali et al., 2012. Retroviral supernatants for transduction of 32D myeloid cells and primary hematopoietic stem and progenitor cells were generated using Phoenix ecotropic packaging cell line transfected with retroviral vector plasmids using a calcium phosphate transfection kit (Invitrogen, Carlsbad, Calif.). Supernatants were collected 48 hours after transfection and filtered through 0.45 μm membranes. […]

leukemic mice = conditions: together with PI3Kinase inhibitor LY294002, compared to either inhibitor alone; cited from earlier work
[2] = test system: 32D myeloid cells bearing KITD814V; conditions: previously shown (Mali et al., 2012); cited from earlier work
[3] = test system: 32D myeloid cells bearing KITD814V; assay: Proliferation (thymidine incorporation) of 32D myeloid cells bearing KITD814V; assay type: cell-based
Protocol: as §1
To further determine the efficacy of compound 11a-1, the growth of oncogenic KITD814V bearing 32D myeloid cells in the presence of II-B08 and 11a-1 were compared. Specifically, the wild-type (WT) KIT and KITD814V were inserted into the bicistronic retroviral vector, MIEG3, upstream of the internal ribosome entry site (IRES) and the enhanced green fluorescent protein (EGFP) gene as previously described in Mali et al., 2012. Retroviral supernatants for transduction of 32D myeloid cells and primary hematopoietic stem and progenitor cells were generated using Phoenix ecotropic packaging cell line transfected with retroviral vector plasmids using a calcium phosphate transfection kit (Invitrogen, Carlsbad, Calif.). Supernatants were collected 48 hours after transfection and filtered through 0.45 μm membranes. 32D myeloid cells were infected twice at 24-hour intervals with 2 mL high/titer virus supernatant in the presence of 10 ng/mL IL-3 and 8 μg/mL polybrene. Forty-eight hours after infection, 32D cells expressing WT KIT or KITD814V receptors were sorted to homogeneity based on EGFP expression and utilized to perform all of the experiments.

[4] = test system: growth factor stimulated ERK1/2 activation; conditions: cited from earlier work

Cn1c(-c2ccccc2)c(-c2cn(CCC(=O)Nc3ccc(-c4ccccc4)cc3)nn2)c2cc(C(=O)O)c(O)cc21 [IIB08]
hematopoietic progenitor proliferation (hematopoietic progenitor): blocked
growth of WT KIT bearing 32D cells [1]: no significant suppression
survival of leukemic mice (leukemic mice): significantly prolonged the survival
oncogenic KITD814V induced ligand independent growth [2]: suppressed
ligand independent growth of KITD814V bearing 32D cells ([3]; 1 μM): not at 1 μM concentration
ligand independent growth of KITD814V bearing 32D cells ([3]; 5 μM): significant suppression
growth factor stimulated ERK1/2 activation [4]: blocked
